Measured values from patent US20260365611A1, “CRYSTALLINE SALTS OF 2-PHENYL-2-AMINOCYCLOHEXAN-1-ONE DERIVATIVES” (priority 2023, published 2026).

Assay: Polymorph screening (slurry, anti-solvent addition, thermal cycling, slow evaporation, vapor diffusion, polymer-induced crystallization)
Format: physicochemical
Parameters: key: CL: Clear Liquid; HCl-1: Form 1 polymorph; HCl-2: Mixture of Polymorphs of Form 1 and Form 2
Method: Based on the approximate solubility of the product of Example 1 (1R HCl Form 1), screening experiments were conducted to find potential additional crystalline forms (polymorphs) using different screening techniques including, but not limited to, slow evaporation, slow cooling, anti-solvent addition, slurry at RT and 50 °C, temperature cycling, diffusion (solid and liquid), and polymer induced crystallization. The various procedures are outlined hereinbelow.
~40 mg of the product of Example 1 was slurried in 0.5-1.0 mL of different solvents in a 4.0 mL glass vial using a magnetic stirrer at RT. The solids in the slurry were stirred for 7 days.
~40 mg of the product of Example 1 was slurried in 0.5-1.0 mL of different solvents in a 4.0 mL glass vial using a magnetic stirrer at 50 °C. […]. The solids in the slurry were stirred for 3 days.
~40 mg of the product of Example 1 was dissolved in a solvent to create a saturated solution and an anti-solvent was added up to 10 volume ratios. The solids, if any, were collected.
~40 mg of the product of Example 1 was dissolved in a solvent, heated, and cooled following temperature cycles of 45 °C/1h→35 °C/4h→25 °C/4h→15 °C/4h→5 °C/4 h for 7 days. The obtained solids (if any) were collected after 7 days.
~40 mg of the product of Example 1 was dissolved in a solvent in a vial to create a saturated solution. The vial opening was covered with parafilm or aluminum foil (2-holes). The vials were kept at RT under the hood. The obtained solids (if any) were collected after 7 days.
~40 mg of the product of Example 1 was dissolved in a solvent to create a saturated solution in a 4.0 mL glass vial. The vial was placed in a 20 mL glass vial containing an anti-solvent. The obtained solids were collected after 7-10 days.
~40 mg of the product of Example 1 was kept in a 4.0 mL glass vial; this vial was placed in a 20 mL glass vial containing a solvent. The solids were collected after 7-10 days.
~40 mg of the product of Example 1 and 2.0 mg of the listed polymer were added to a solvent and kept stirring at RT. The solids in slurry or precipitated solids from solution were collected after 7 days.

With CN[C@@]1(c2ccc(F)cc2)CCCCC1=O.Cl [1R HCl, (R)-2-(4-fluorophenyl)-2-(methylamino)cyclohexan-1-one hydrochloride] the “Crystal Form” value (anti-solvent addition, DCM / 1,4-dioxane) was “CL”, the “Crystal Form” value (anti-solvent addition, DCM / Acetone) was “HCl-1” and the “Crystal Form” value (anti-solvent addition, DCM / CPME) was “HCl-1”. The “Crystal Form” value (anti-solvent addition, DCM / EtOAc) was “HCl-1”, the “Crystal Form” value (anti-solvent addition, DCM / Hexane) was “HCl-1” and the “Crystal Form” value (anti-solvent addition, IPA / 1,4-dioxane) was “CL”. The “Crystal Form” value (anti-solvent addition, IPA / Acetone) was “CL”, the “Crystal Form” value (anti-solvent addition, IPA / Heptane) was “HCl-1” and the “Crystal Form” value (anti-solvent addition, IPA / IPAc) was “HCl-2”. The “Crystal Form” value (anti-solvent addition, IPA / MTBE) was “HCl-2”, the “Crystal Form” value (anti-solvent addition, MeOH / Acetone) was “CL” and the “Crystal Form” value (anti-solvent addition, MeOH / EtOAc) was “HCl-1”. The “Crystal Form” value (anti-solvent addition, MeOH / MTBE) was “HCl-1”, the “Crystal Form” value (anti-solvent addition, MeOH / THF) was “HCl-1” and the “Crystal Form” value (anti-solvent addition, MeOH / Toluene) was “HCl-2”. For the same molecule, the “Crystal Form” value (anti-solvent addition, Water / 1,4-dioxane) was “CL”, the “Crystal Form” value (anti-solvent addition, Water / ACN) was “CL” and the “Crystal Form” value (anti-solvent addition, Water / THF) was “CL”. For the same molecule, the “Crystal Form” value (liquid vapor diffusion RT, DMSO / Acetone) was “CL”, the “Crystal Form” value (liquid vapor diffusion RT, DMSO / EtOAc) was “CL” and the “Crystal Form” value (liquid vapor diffusion RT, DMSO / Toluene) was “CL”. For the same molecule, the “Crystal Form” value (liquid vapor diffusion RT, MeOH / 2-MeTHF) was “CL”, the “Crystal Form” value (liquid vapor diffusion RT, MeOH / IPAc) was “CL” and the “Crystal Form” value (liquid vapor diffusion RT, MeOH / MTBE) was “CL”. For the same molecule, the “Crystal Form” value (liquid vapor diffusion RT, NMP / 1,4-dioxane) was “CL”, the “Crystal Form” value (liquid vapor diffusion RT, NMP / Acetone) was “CL” and the “Crystal Form” value (liquid vapor diffusion RT, NMP / MTBE) was “HCl-1”. For the same molecule, the “Crystal Form” value (polymer induced RT, ACN/H2O (9:1), PEO (Poloxamer 407)) was “gel”, the “Crystal Form” value (polymer induced RT, Acetone/DCM (9:1), PVP) was “HCl-2” and the “Crystal Form” value (polymer induced RT, Acetone/H2O (9:1), PVA) was “HCl-2”. For the same molecule, the “Crystal Form” value (polymer induced RT, EtOH/Heptane (3/7), HPMC) was “HCl-1”, the “Crystal Form” value (polymer induced RT, MTBE/IPA (9:1), PVA) was “HCl-1” and the “Crystal Form” value (polymer induced RT, MeOH/H2O (9:1), PVP) was “gel”. The “Crystal Form” value (slow evaporation RT, 7 days, ACN) was “HCl-1”, the “Crystal Form” value (slow evaporation RT, 7 days, Acetone) was “HCl-1” and the “Crystal Form” value (slow evaporation RT, 7 days, DCM) was “HCl-2”. For the same molecule, the “Crystal Form” value (slow evaporation RT, 7 days, DMF) was “CL”, the “Crystal Form” value (slow evaporation RT, 7 days, DMSO) was “CL” and the “Crystal Form” value (slow evaporation RT, 7 days, MeOH) was “gel”. The “Crystal Form” value (slow evaporation RT, 7 days, NMP) was “CL”, the “Crystal Form” value (slow evaporation RT, 7 days, Water) was “HCl-1” and the “Crystal Form” value (slow evaporation RT, 7 days, nPA) was “HCl-1”. For the same molecule, the “Crystal Form” value (slurry 50 °C, 3 days, 1,4-dioxane) was “HCl-1”, the “Crystal Form” value (slurry 50 °C, 3 days, 2-MeTHF) was “HCl-1” and the “Crystal Form” value (slurry 50 °C, 3 days, ACN) was “HCl-1”. The “Crystal Form” value (slurry 50 °C, 3 days, Acetone/Toluene (1:1)) was “HCl-1”, the “Crystal Form” value (slurry 50 °C, 3 days, EtOAc) was “HCl-1” and the “Crystal Form” value (slurry 50 °C, 3 days, EtOH) was “HCl-1”. The “Crystal Form” value (slurry 50 °C, 3 days, IPA) was “HCl-1”, the “Crystal Form” value (slurry 50 °C, 3 days, IPAc) was “HCl-1” and the “Crystal Form” value (slurry 50 °C, 3 days, MEK) was “HCl-1”. The “Crystal Form” value (slurry 50 °C, 3 days, MIBK) was “HCl-1”, the “Crystal Form” value (slurry 50 °C, 3 days, MTBE) was “HCl-1” and the “Crystal Form” value (slurry 50 °C, 3 days, MeOH) was “HCl-1”. The “Crystal Form” value (slurry 50 °C, 3 days, THF/H2O (9:1)) was “gel”, the “Crystal Form” value (slurry 50 °C, 3 days, THF/n-Heptane (1:1)) was “HCl-1” and the “Crystal Form” value (slurry 50 °C, 3 days, Toluene) was “HCl-1”. For the same molecule, the “Crystal Form” value (slurry 50 °C, 3 days, Water) was “HCl-1”, the “Crystal Form” value (slurry RT, 7 days, 1,4-dioxane) was “HCl-2” and the “Crystal Form” value (slurry RT, 7 days, ACN) was “HCl-2”. For the same molecule, the “Crystal Form” value (slurry RT, 7 days, Acetone/H2O (aw = 0.2)) was “HCl-2”, the “Crystal Form” value (slurry RT, 7 days, Acetone/H2O (aw = 0.4)) was “HCl-2” and the “Crystal Form” value (slurry RT, 7 days, Acetone/H2O (aw = 0.6)) was “gel”. The “Crystal Form” value (slurry RT, 7 days, Acetone/H2O (aw = 0.8)) was “gel”, the “Crystal Form” value (slurry RT, 7 days, Acetone/Toluene (1:1)) was “HCl-1” and the “Crystal Form” value (slurry RT, 7 days, Anisole) was “HCl-1”. For the same molecule, the “Crystal Form” value (slurry RT, 7 days, CPME) was “HCl-1”, the “Crystal Form” value (slurry RT, 7 days, EtOAc) was “HCl-1” and the “Crystal Form” value (slurry RT, 7 days, H2O) was “CL”. For the same molecule, the “Crystal Form” value (slurry RT, 7 days, IPA) was “HCl-1”, the “Crystal Form” value (slurry RT, 7 days, IPAc) was “HCl-1” and the “Crystal Form” value (slurry RT, 7 days, MEK) was “HCl-1”. For the same molecule, the “Crystal Form” value (slurry RT, 7 days, MIBK) was “HCl-1”, the “Crystal Form” value (slurry RT, 7 days, MTBE) was “HCl-1” and the “Crystal Form” value (slurry RT, 7 days, MeOH) was “HCl-1”. The “Crystal Form” value (slurry RT, 7 days, PEG) was “amorphous”, the “Crystal Form” value (slurry RT, 7 days, THF) was “HCl-2” and the “Crystal Form” value (slurry RT, 7 days, THF/n-Heptane (1:1)) was “HCl-1”. The “Crystal Form” value (slurry RT, 7 days, Toluene) was “HCl-1”, the “Crystal Form” value (solid vapor diffusion RT, 1,4-dioxane) was “HCl-1” and the “Crystal Form” value (solid vapor diffusion RT, 2-MeTHF) was “HCl-1”. The “Crystal Form” value (solid vapor diffusion RT, ACN) was “HCl-1”, the “Crystal Form” value (solid vapor diffusion RT, Acetone) was “HCl-1” and the “Crystal Form” value (solid vapor diffusion RT, DCM) was “CL”. For the same molecule, the “Crystal Form” value (solid vapor diffusion RT, EtOAc) was “HCl-1”, the “Crystal Form” value (solid vapor diffusion RT, EtOH) was “CL” and the “Crystal Form” value (solid vapor diffusion RT, Hexane) was “HCl-1”. For the same molecule, the “Crystal Form” value (solid vapor diffusion RT, MEK) was “HCl-1”, the “Crystal Form” value (solid vapor diffusion RT, MTBE) was “HCl-1” and the “Crystal Form” value (solid vapor diffusion RT, MeOH) was “CL”. For the same molecule, the “Crystal Form” value (solid vapor diffusion RT, Toluene) was “HCl-1”, the “Crystal Form” value (thermal cycling, 7 days, ACN) was “HCl-1” and the “Crystal Form” value (thermal cycling, 7 days, DMSO) was “HCl-1”. The “Crystal Form” value (thermal cycling, 7 days, EtOH/acetone (3:7)) was “gel”, the “Crystal Form” value (thermal cycling, 7 days, EtOH/n-Heptane (3:7)) was “HCl-1” and the “Crystal Form” value (thermal cycling, 7 days, IPA) was “HCl-2”. The “Crystal Form” value (thermal cycling, 7 days, IPA/Toluene (3:7)) was “HCl-2” and the “Crystal Form” value (thermal cycling, 7 days, MeOH/IPAc (1:9)) was “HCl-1”.
